Values joined by “and” are separate entries in the source; they are usually repeats but may differ in a detail not shown here. Equal values may be shown once. Inconclusive results and toxic doses are left out. How the source made its calls: active means survival T/C of 150% or more; inactive means T/C below 125% in these data.
Test system: CD2F1 mice, L1210 leukemia ip, survival T/C
Assay: NCI In Vivo Anticancer Drug Screen. Data for tumor model L1210 Leukemia (intraperitoneal) in CD2F1 (CDF1) mice
Conditions: endpoint: mean survival time, higher = longer survival
Procedure, shortened: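 In this screen, transplantable tumors were grown in mice given either the compound or its vehicle. Results were expressed as the treated measurement relative to the control measurement.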

[1] = dose: 100.0 mg/kg/injection, schedule: Q01DX001 (ip), vehicle: Klucel (hydroxypropylcellulose) (HPC)
[2] = dose: 200.0 mg/kg/injection, schedule: Q01DX001 (ip), vehicle: Klucel (hydroxypropylcellulose) (HPC)
[3] = dose: 400.0 mg/kg/injection, schedule: Q01DX001 (ip), vehicle: Klucel (hydroxypropylcellulose) (HPC)
[4] = dose: 100.0 mg/kg/injection, schedule: Q04DX003 (ip), vehicle: saline with Tween-80
[5] = dose: 200.0 mg/kg/injection, schedule: Q04DX003 (ip), vehicle: saline with Tween-80
[6] = dose: 400.0 mg/kg/injection, schedule: Q04DX003 (ip), vehicle: saline with Tween-80
[7] = dose: 100.0 mg/kg/injection, schedule: Q01DX009 (ip), vehicle: saline with Tween-80
[8] = dose: 12.5 mg/kg/injection, schedule: Q01DX009 (ip), vehicle: saline with Tween-80
[9] = dose: 25.0 mg/kg/injection, schedule: Q01DX009 (ip), vehicle: saline with Tween-80
[10] = dose: 50.0 mg/kg/injection, schedule: Q01DX009 (ip), vehicle: saline with Tween-80
[11] = dose: 200.0 mg/kg/injection, schedule: Q01DX009 (ip), vehicle: saline with Tween-80
[12] = dose: 100.0 mg/kg/injection, schedule: Q04DX003 (ip), vehicle: Klucel (hydroxypropylcellulose) (HPC)
[13] = dose: 200.0 mg/kg/injection, schedule: Q04DX003 (ip), vehicle: Klucel (hydroxypropylcellulose) (HPC)
[14] = dose: 400.0 mg/kg/injection, schedule: Q04DX003 (ip), vehicle: Klucel (hydroxypropylcellulose) (HPC)
[15] = dose: 100.0 mg/kg/injection, schedule: Q04DX003 (ip), vehicle: saline
[16] = dose: 200.0 mg/kg/injection, schedule: Q04DX003 (ip), vehicle: saline
[17] = dose: 400.0 mg/kg/injection, schedule: Q04DX003 (ip), vehicle: saline
[18] = dose: 100.0 mg/kg/injection, schedule: Q04DX002 (ip), vehicle: saline with Tween-80
[19] = dose: 400.0 mg/kg/injection, schedule: Q04DX002 (ip), vehicle: saline with Tween-80

Measured: T/C

O=C1CC(c2ccccc2)=NCCN1
inactive: [1] 100 % of control | [2] 102 % of control | [3] 103 % of control

NC(=O)CSc1ccccc1
inactive: dose: 100.0 mg/kg/injection, schedule: Q01DX001 (ip), vehicle: other 101 % of control | dose: 200.0 mg/kg/injection, schedule: Q01DX001 (ip), vehicle: other 101 % of control | dose: 400.0 mg/kg/injection, schedule: Q01DX001 (ip), vehicle: other 107 % of control

C=C=CCCCCCCCC
inactive: [4] 102 % of control | [5] 98 % of control | [6] 105 % of control

N=C(N)c1ccc(OCCOc2cccc(N)c2)cc1
inactive: dose: 25.0 mg/kg/injection, schedule: Q01DX009 (ip), vehicle: saline 100 % of control | dose: 50.0 mg/kg/injection, schedule: Q01DX009 (ip), vehicle: saline 95 % of control | [7] 93 % of control | dose: 100.0 mg/kg/injection, schedule: Q01DX009 (ip), vehicle: saline 97 % of control

CCOC(=O)C1(c2ccccc2)C(=O)Oc2ccccc21 (configuration not stated)
inactive: [8] 98 % of control | [9] 94 % of control and 96 % of control | [10] 89 % of control and 104 % of control | [7] 89 % of control and 93 % of control | [11] 89 % of control | dose: 400.0 mg/kg/injection, schedule: Q01DX009 (ip), vehicle: saline with Tween-80 87 % of control and 91 % of control

O=C(O/N=C(\CN1CCOCC1)c1ccc(Cl)cc1)c1ccccc1
inactive: [12] 86 % of control | [13] 90 % of control | [14] 94 % of control

CCOC(=O)Nc1cc(NCc2ccccc2)c2[nH]cnc2n1
inactive: [1] 89 % of control | [2] 95 % of control | [3] 98 % of control

COc1ccc(C(=O)CC(C(=O)O)c2ccc(OC)c(OC)c2)cc1OC (configuration not stated)
inactive: [4] 98 % of control | [5] 102 % of control | [6] 91 % of control

O=[N+]([O-])c1ccc(S(=O)(=O)Cl)c(Cl)c1
inactive: dose: 18.8 mg/kg/injection, schedule: Q01DX009 (ip), vehicle: saline with Tween-80 91 % of control | dose: 37.5 mg/kg/injection, schedule: Q01DX009 (ip), vehicle: saline with Tween-80 100 % of control | dose: 75.0 mg/kg/injection, schedule: Q01DX009 (ip), vehicle: saline with Tween-80 95 % of control | [15] 98 % of control | [16] 89 % of control | [17] 86 % of control

CCN(CC)C(=O)c1ccc[n+](Cc2ccc(Cl)cc2)c1
inactive: [15] 102 % of control

O=CNCCc1ccc2c(c1)[nH]c1ccccc12
inactive: dose: 100.0 mg/kg/injection, schedule: Q01DX001 (ip), vehicle: saline 95 % of control | dose: 200.0 mg/kg/injection, schedule: Q01DX001 (ip), vehicle: saline 98 % of control | dose: 400.0 mg/kg/injection, schedule: Q01DX001 (ip), vehicle: saline 98 % of control

Nc1nc(-c2ccccc2)nc2c1=NC(c1ccccc1)N=2 (configuration not stated)
inactive: dose: 12.5 mg/kg/injection, schedule: Q01DX005 (ip), vehicle: other 96 % of control | dose: 25.0 mg/kg/injection, schedule: Q01DX005 (ip), vehicle: other 98 % of control | dose: 50.0 mg/kg/injection, schedule: Q01DX005 (ip), vehicle: other 98 % of control | dose: 100.0 mg/kg/injection, schedule: Q01DX005 (ip), vehicle: other 93 % of control | dose: 200.0 mg/kg/injection, schedule: Q01DX005 (ip), vehicle: other 93 % of control

CCOc1ccccc1OC(=O)Nc1ccc(OC)cc1
inactive: [9] 97 % of control | dose: 25.0 mg/kg/injection, schedule: Q04DX002 (ip), vehicle: saline with Tween-80 114 % of control | [10] 89 % of control | dose: 50.0 mg/kg/injection, schedule: Q04DX002 (ip), vehicle: saline with Tween-80 104 % of control | [7] 97 % of control | [18] 94 % of control and 107 % of control | [19] 98 % of control

O=C(N/N=C\c1c(Cl)cccc1Cl)c1ccccc1
inactive: dose: 100.0 mg/kg/injection, schedule: Q01DX009 (ip), vehicle: Klucel (hydroxypropylcellulose) (HPC) 94 % of control | [12] 100 % of control | dose: 200.0 mg/kg/injection, schedule: Q01DX009 (ip), vehicle: Klucel (hydroxypropylcellulose) (HPC) 96 % of control | [13] 100 % of control | [14] 96 % of control

CCOC(=O)c1ccc(NC(=O)N(C)C2CCCCC2)cc1
inactive: [10] 95 % of control and 102 % of control | [7] 100 % of control and 104 % of control | [18] 91 % of control and 92 % of control | [4] 92 % of control | [11] 100 % of control and 104 % of control | dose: 200.0 mg/kg/injection, schedule: Q04DX002 (ip), vehicle: saline with Tween-80 92 % of control and 109 % of control | [5] 96 % of control | [19] 102 % of control | [6] 91 % of control

CC(C)OC(=O)Nc1ccc(Cl)cc1
inactive: [4] 97 % of control | [5] 97 % of control | [6] 100 % of control

CC1(O)OOC(=O)C1(C)C (configuration not stated)
inactive: dose: 5.0 mg/kg/injection, schedule: Q01DX001 (ip), vehicle: saline with Tween-80 91 % of control | dose: 10.0 mg/kg/injection, schedule: Q01DX001 (ip), vehicle: saline with Tween-80 91 % of control | dose: 20.0 mg/kg/injection, schedule: Q01DX001 (ip), vehicle: saline with Tween-80 92 % of control

CNC(=S)NCc1ccc(C(=O)NC(C)C)cc1
inactive: dose: 50.0 mg/kg/injection, schedule: Q01DX009 (ip), vehicle: other 97 % of control | dose: 100.0 mg/kg/injection, schedule: Q01DX009 (ip), vehicle: other 95 % of control | dose: 200.0 mg/kg/injection, schedule: Q01DX009 (ip), vehicle: other 100 % of control | dose: 400.0 mg/kg/injection, schedule: Q01DX009 (ip), vehicle: other 91 % of control

COc1ccc(/C=N/NC(=O)CNC(=O)Nc2cccc(Cl)c2)cc1
inactive: [8] 91 % of control | [9] 91 % of control

Nc1nc(N)c2c(n1)NCN(Cc1ccc(Cl)cc1Cl)C2
inactive: dose: 0.75 mg/kg/injection, schedule: Q01DX009 (ip), vehicle: water 105 % of control | dose: 1.5 mg/kg/injection, schedule: Q01DX009 (ip), vehicle: water 94 % of control | dose: 3.0 mg/kg/injection, schedule: Q01DX009 (ip), vehicle: water 100 % of control | dose: 6.0 mg/kg/injection, schedule: Q01DX009 (ip), vehicle: water 100 % of control | dose: 12.0 mg/kg/injection, schedule: Q01DX009 (ip), vehicle: water 96 % of control | dose: 24.0 mg/kg/injection, schedule: Q01DX009 (ip), vehicle: water 100 % of control | dose: 37.5 mg/kg/injection, schedule: Q01DX009 (ip), vehicle: water 96 % of control | dose: 75.0 mg/kg/injection, schedule: Q01DX009 (ip), vehicle: water 91 % of control

CC(=O)NC(C)C(C)(C)O (configuration not stated)
inactive: [15] 91 % of control | [16] 101 % of control | [17] 95 % of control
